Molecules are shown by their SMILES.

The first test deals with influenza PA endonuclease (Influenza A virus, UniProt C3W5S0). Kind of test: biochemical. Details: species or system Pandemic H1N1 influenza A.
Settings: not given
The compound `CNC(=O)c1occc(=O)c1O` [A11] yielded an IC50 of 4.1 µM.

Compound `CNC(=O)c1[nH]ccc(=O)c1O` [B4] showed a half-maximal inhibitory concentration (IC50) of 13 µM. Same read-out and setting: the figure for `Cc1occ(O)c(=O)c1C(=O)NCCc1ccccc1` [Compound 13, 5-Hydroxy-2-methyl-4-oxo-N-phenethyl-4H-pyran-3-carboxamide] is 11.3 ± 1.2 µM; for `COc1cccc(CNC(=O)c2c(C)occ(O)c2=O)c1` [Compound 18, 5-Hydroxy-N-(3-methoxybenzyl)-2-methyl-4-oxo-4H-pyran-3-carboxamide] it is 22.1 ± 0.6 µM. As to `O=c1cc(CNCc2ccccc2)occ1O` [Compound 26, 2-((Benzylamino)methyl)-5-hydroxy-4H-pyran-4-one], the IC50 came to 2.7 ± 0.4 µM. This IC50 lies about 8.2-fold lower than the previous one. As for `CS(=O)(=O)NCc1cc(=O)c(O)co1` [Compound 30], the midpoint of inhibition, the IC50, lay at 4.8 ± 0.7 µM. This IC50 lies about 1.8-fold higher than the previous one. As to `CN(Cc1cc(=O)c(O)co1)c1ccc(F)cc1` [Compound 39, 2-(((4-Fluorophenyl)(methyl)amino)methyl)-5-hydroxy-4H-pyran-4-one], the IC50 was determined as 1.8 ± 0.2 µM.

`CN(Cc1cc(=O)c(O)co1)c1cccc(F)c1` [Compound 40, 2-(((3-Fluorophenyl)(methyl)amino)methyl)-5-hydroxy-4H-pyran-4-one] gave an IC50 of 3.2 ± 0.1 µM. The same measure, in the same setting: the same measure for `CN(Cc1cc(=O)c(O)co1)c1ccncc1` [Compound 41, 5-Hydroxy-2-((methyl(pyridin-4-yl)amino)methyl)-4H-pyran-4-one]: > 100 µM. `Cc1c(O)c(=O)ccn1-c1ccccc1` [Compound 45, 3-Hydroxy-2-methyl-1-phenylpyridin-4(1H)-one]: the IC50 amounted to 18 ± 2 µM. The same measure, in the same setting: the figure for `Cc1c(O)c(=O)ccn1C1CCCCC1` [Compound 48, 1-Cyclohexyl-3-hydroxy-2-methylpyridin-4(1H)-one] is 14 ± 3 µM; for `Cc1cc(=O)c(O)cn1C1CCOCC1` [Compound 51] it is 0.73 ± 0.07 µM. On to `COc1cc(C)c(C(=O)O)cc(O)c1=O` [Compound 105], for which the IC50 came to 0.18 µM and the LE is listed as 0.66.

Consider `O=C(O)c1ccc(O)c(O)c1` [Compound 107], for which the midpoint of inhibition, the IC50, lay at 0.22 µM and the LE is recorded as 0.83.

The compound `CC(C)c1cccc(=O)c(O)c1` [E4] returned an IC50 of 11 µM. Compound `CCOC(=O)c1c(C)n(-c2ccccc2)cc(O)c1=O` [compound 67, Ethyl 5-hydroxy-2-methyl-4-oxo-1-phenyl-1,4-dihydropyridine-3-carboxylate] came in with an IC50 of 5.3 ± 0.4 µM. On the same count and under the same terms, the same measure for `CCOC(=O)c1c(C)n(-c2ccc(Oc3ccccc3)cc2)cc(O)c1=O` [compound 68, Ethyl 5-hydroxy-2-methyl-4-oxo-1-(4-phenoxyphenyl)-, 4-dihydropyridine-3-carboxylate]: 5.2 ± 0.8 µM; for `O=c1cc(Br)[nH]c(-c2nnn[nH]2)c1O` [compound 133, 6-Bromo-3-hydroxy-2-(1H-tetrazol-5-yl)pyridin-4(1H)-one]: 0.063 µM; for `O=C(O)c1[nH]c(-c2ccccc2)cc(=O)c1O` [compound 142, 3-Hydroxy-4-oxo-6-phenyl-1,4-dihydropyridine-2-carboxylic acid]: 0.0056 µM. Compound `O=C(O)c1[nH]c(-c2ccc(Oc3ccccc3)cc2)cc(=O)c1O` [compound 143, 3-Hydroxy-4-oxo-6-(4-phenoxyphenyl)-1,4-dihydropyridine-2-carboxylic acid] returned an IC50 of 0.022 µM. Compared with the last compound, the IC50 is about 3.9-fold higher. Same read-out and setting: the same measure for `O=C(O)c1ccc(-c2cc(=O)c(O)c(C(=O)O)[nH]2)cc1` [compound 144, 6-(4-carboxyphenyl)-3-hydroxy-4-oxo-1,4-dihydropyridine-2-carboxylic acid]: 0.0016 µM. The compound `O=C(O)c1cccc(-c2cc(=O)c(O)c(C(=O)O)[nH]2)c1` [compound 145, 6-(3-carboxyphenyl)-3-hydroxy-4-oxo-1,4-dihydropyridine-2-carboxylic acid] yielded an IC50 of 0.002 µM. The compound `Cc1cccc(-c2cc(=O)c(O)c(C(=O)O)[nH]2)c1` [compound 146, 3-hydroxy-4-oxo-6-(m-tolyl)-1,4-dihydropyridine-2-carboxylic acid] had a half-maximal inhibitory concentration (IC50) of 0.0048 µM. On the same count and under the same terms, the same measure for `O=C(O)c1[nH]c(-c2ccc(-c3nnn[nH]3)cc2)cc(=O)c1O` [compound 148, 6-(4-(1H-tetrazol-5-yl)phenyl)-3-hydroxy-4-oxo-1,4-dihydropyridine-2-carboxylic acid]: 0.0019 µM.

As to `O=c1cc[nH]c(-c2ncco2)c1O` [compound 151], the IC50 is 0.071 µM. As for `O=c1cccccc1O` [compound 201], the IC50 turned out to be 8.8 µM. In turn, `Cc1cc(O)c(=O)c(O)cc1-c1ccccc1` [compound 213, 2,7-Dihydroxy-4-methyl-5-phenylcyclohepta-2,4,6-trien-1-one] had a half-maximal inhibitory concentration (IC50) of 0.005 µM.

Staying with this test, now noted: IC50 value.
Compound `O=C(O)c1[nH]c(Br)cc(=O)c1O` [compound 131, 6-Bromo-3-hydroxy-4-oxo-1,4-dihydropyridine-2-carboxylic acid] had a half-inhibitory concentration (IC50) of 0.025 µM.

What is called IC50 is the concentration needed to halve the response being measured.

The values are drawn from US10889556B2, “Compositions and methods for inhibiting influenza RNA polymerase PA endonuclease” (The Regents of the University of California, priority 2016, dated 2021).
